{
  "source": "paper PMC3437492",
  "about": "(British Journal of Pharmacology, 2012)",
  "molecules": {"B1": {"name": "choline kinase (CK) (Plasmodium falciparum 3D7) (protein)", "chain": "MESKICDPIGLDKNKFRKVEEENEENSKIVENGQMTYNDDLEMFTTIQLNQEIDIRKNPFPLHMINQKNDIPLCAQEFSKLTDPLYIKKICLEKVHDWSRCNEDDVCVNQILSGLTNQLFEVSIKEDTAIEYRITRRHVLFRIYGKDVDALYNPLSEFEVYKTMSKYRIAPLLLNTFDGGRIEEWLYGDPLSIDDLKNKSILVGIANVLGKFHTLSRKRHLPEHWDKTPCVFKMMDRWRLAVSNYKNLDKVTLDINKYIQESHKFLKFIKIYTQIENIANDIVFCHNDLQENNIMNTNKCLRLIDFEYSGYNFLSADIANFFIETTIDYSYNAYPFFIINKKNYISYESRILFVTTYLSKYLDDSTAASDQDIIDQFLEAIEVQALGLHLIWAFWSIIRGYQTKSYNEFDFFLYAKERLKMYDEQKQYLMSKNIIKDYDD"}},
  "key": {"[1]": {"target": "CTP:phosphocholine cytidylyltransferase (CCT) (Plasmodium falciparum, UniProt Q8IEE9)", "sequence (Q8IEE9 1-896)": "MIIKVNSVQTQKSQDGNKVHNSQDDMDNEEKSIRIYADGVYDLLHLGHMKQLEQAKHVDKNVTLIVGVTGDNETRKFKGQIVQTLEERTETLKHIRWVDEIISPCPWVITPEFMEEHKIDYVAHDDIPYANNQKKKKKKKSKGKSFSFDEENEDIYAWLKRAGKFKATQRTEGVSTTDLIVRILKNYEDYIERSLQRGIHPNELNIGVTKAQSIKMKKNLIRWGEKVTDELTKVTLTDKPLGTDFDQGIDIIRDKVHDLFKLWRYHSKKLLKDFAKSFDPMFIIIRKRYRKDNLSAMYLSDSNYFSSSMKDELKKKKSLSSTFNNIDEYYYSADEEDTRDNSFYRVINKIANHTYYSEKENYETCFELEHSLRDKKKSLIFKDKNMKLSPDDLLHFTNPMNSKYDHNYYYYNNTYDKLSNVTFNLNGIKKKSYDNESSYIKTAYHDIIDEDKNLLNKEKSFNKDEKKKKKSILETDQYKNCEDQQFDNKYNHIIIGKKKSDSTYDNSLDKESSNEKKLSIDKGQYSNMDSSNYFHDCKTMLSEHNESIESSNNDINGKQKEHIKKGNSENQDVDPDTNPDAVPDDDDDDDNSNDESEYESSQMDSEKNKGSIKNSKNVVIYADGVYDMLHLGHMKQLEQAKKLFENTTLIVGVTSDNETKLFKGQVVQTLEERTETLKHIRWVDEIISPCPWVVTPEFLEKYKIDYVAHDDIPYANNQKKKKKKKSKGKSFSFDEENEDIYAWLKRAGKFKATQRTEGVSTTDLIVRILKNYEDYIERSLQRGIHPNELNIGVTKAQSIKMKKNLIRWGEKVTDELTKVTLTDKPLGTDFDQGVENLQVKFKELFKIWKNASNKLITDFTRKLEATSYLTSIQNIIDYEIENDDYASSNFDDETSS", "test": "CCT assay", "type": "biochemical"}, "P. falciparum 3D7 strain": {"system": "P. falciparum 3D7 strain", "type": "cell-based"}, "[2]": {"system": "furosemide-sensitive NPP of P. falciparum IRBC", "test": "Albitiazolium entry into P. falciparum-infected erythrocytes", "type": "cell-based"}, "choline kinase (CK) [3]": {"target": "T1, choline kinase (CK) (Plasmodium falciparum, UniProt Q8IM71)", "T1 sequence (Q8IM71 1-440)": "B1 chain"}, "[4]": {"system": "PE biosynthesis in P. falciparum-infected erythrocytes", "test": "Effect on [3H]-ethanolamine incorporation into PL", "type": "cell-based", "conditions": "for IC50: read-out: PE50"}, "normal erythrocytes": {"system": "normal erythrocytes", "test": "Albitiazolium entry into normal erythrocytes", "type": "cell-based, human", "conditions": "30 µM albitiazolium, 8 min, 37°C"}, "[5]": {"system": "P. falciparum asexual blood stages", "conditions": "ref Vial et al., 2004; cited from earlier work"}, "[6]": {"target": "T2, choline/ethanolamine phosphotransferase (CEPT) (Plasmodium falciparum, UniProt C6KTB9)", "T2 sequence (C6KTB9 1-391)": "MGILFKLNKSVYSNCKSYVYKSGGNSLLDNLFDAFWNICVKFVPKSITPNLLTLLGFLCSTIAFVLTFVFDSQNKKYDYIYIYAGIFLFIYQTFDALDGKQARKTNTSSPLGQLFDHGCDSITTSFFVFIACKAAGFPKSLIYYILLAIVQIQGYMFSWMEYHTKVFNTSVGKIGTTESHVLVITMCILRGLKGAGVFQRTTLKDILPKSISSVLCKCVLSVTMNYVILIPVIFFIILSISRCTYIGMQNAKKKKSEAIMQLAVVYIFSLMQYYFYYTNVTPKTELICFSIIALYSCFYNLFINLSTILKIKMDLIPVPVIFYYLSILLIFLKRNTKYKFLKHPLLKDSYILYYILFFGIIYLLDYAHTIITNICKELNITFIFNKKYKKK", "test": "biochemical", "conditions": "0.5 h, read-out: Concentration for complete inhibition"}, "[7]": {"system": "erythrocyte choline carrier", "test": "Carrier-mediated choline entry into IRBC in the presence of 150 µM furosemide", "type": "cell-based, human"}, "human plasma-proteins": {"system": "human plasma-proteins", "conditions": "at 20 ng·mL^−1; no saturation until 5000 ng·mL^−1; ref unpublished observations; cited from earlier work"}, "choline kinase (CK) [8]": {"target": "T1, choline kinase (CK)", "test": "biochemical"}, "[9]": {"system": "NA biosynthesis in P. falciparum-infected erythrocytes", "test": "Effect on [3H]-hypoxanthine incorporation into nucleic acids", "type": "cell-based", "conditions": "for IC50: Plasmodium falciparum, Erythrocyte"}, "[10]": {"system": "parasite poly-specific cation carrier", "conditions": "for Type of inhibition: inhibition of albitiazolium entry"}, "[11]": {"system": "P. falciparum-infected erythrocytes", "test": "Total choline entry into P. falciparum-infected erythrocytes", "type": "cell-based", "conditions": "no furosemide"}, "[12]": {"system": "parasite choline transporter (poly-specific cation transporter)", "test": "Choline entry into isolated", "type": "cell-based, P. falciparum"}, "P. falciparum-IRBC": {"system": "P. falciparum-IRBC", "conditions": "ref Wein et al., cited from earlier work"}, "[13]": {"target": "T2, choline/ethanolamine phosphotransferase (CEPT)"}, "[14]": {"system": "erythrocyte choline carrier", "conditions": "normal erythrocytes, 37°C"}, "[15]": {"substrate": "C[N+](C)(C)CCO", "test": "cells, lysate or membranes named", "conditions": "other: CK; saturating ATP; pH 7.9"}},
  "note": "Several values for one entry are separate records, joined by “and”; a condition that tells them apart may be missing. Equal entries are not always repeated. Where two headings read alike, the source gives them in different places.",
  "data": [
    {"molecule": "C[N+](C)(C)CCOP(=O)(O)O", "note": "[phosphocholine]", "values": [
      {"measurement": "Vmax", "setting": "[1]; CCT", "value": "5.2 ± 1.4", "unit": "pmol per 10^7 IRBC·min^−1"},
      {"measurement": "Km", "setting": "[1]; read-out: Km for choline-containing substrate, CCT, saturating CTP", "value": "511 ± 24.8", "unit": "µM"}
    ]},
    {"molecule": "Cc1c(CCO)sc[n+]1CCCCCCCCCCCC[n+]1csc(CCO)c1C.[Br-].[Br-]", "note": "[albitiazolium, 3,3′-(dodecane-1,12-diyl)bis[5-(2-hydroxyethyl)-4-methyl-1,3-thiazol-3-ium] dibromide]", "values": [
      {"measurement": "Type of interaction with choline", "setting": "P. falciparum 3D7 strain; combination with choline", "value": "highly antagonized"},
      {"measurement": "Type of interaction with ethanolamine", "setting": "P. falciparum 3D7 strain; combination with ethanolamine", "value": "additive effect"},
      {"measurement": "Type of interaction with serine", "setting": "P. falciparum 3D7 strain; combination with serine", "value": "additive effect"},
      {"measurement": "Decrease of antimalarial activity", "setting": "P. falciparum 3D7 strain; in the presence of 6 mM choline", "value": 28, "unit": "fold"},
      {"measurement": "Vmax of albitiazolium entry", "setting": "[2]; 8 min, 37°C", "value": "47.9 ± 4.9", "unit": "pmol per 10^7 IRBC·min^−1"},
      {"measurement": "Km", "setting": "[2]; read-out: apparent Km of albitiazolium entry, 8 min, 37°C", "value": "20.6 ± 4.3", "unit": "µM"},
      {"measurement": "Concentration for complete inhibition", "setting": "choline kinase (CK) [3]", "value": 100, "unit": "mM"},
      {"measurement": "IC50", "setting": "[4]; Plasmodium falciparum, Erythrocyte, 3 h", "value": "> 1", "unit": "mM"},
      {"measurement": "IC50", "setting": "[4]; Plasmodium falciparum, Erythrocyte", "value": "> 1", "unit": "mM"},
      {"measurement": "IC50", "setting": "[4]; schizont stage, 2 µM [3H]-ethanolamine, 3 h", "value": "> 1", "unit": "mM"},
      {"measurement": "IC50", "setting": "[4]; trophozoite stage, 2 µM [3H]-ethanolamine, 3 h", "value": "> 1", "unit": "mM"},
      {"measurement": "Effect on ethanolamine incorporation", "setting": "[4]; up to 10 µM", "value": "no significant effect"},
      {"measurement": "Albitiazolium entry rate", "setting": "normal erythrocytes", "value": "lower than 0.01 pmol per 10^7 RBC·min^−1"},
      {"measurement": "Concentration effective at treating malaria in vitro", "setting": "[5]", "value": "~10", "unit": "nM"},
      {"measurement": "IC100", "setting": "[6]", "value": 100000, "unit": "µM"},
      {"measurement": "Concentration for complete inhibition of choline entry", "setting": "[7]; 15 µM choline, 150 µM furosemide", "value": 12, "unit": "µM"},
      {"measurement": "Type of inhibition", "setting": "[7]; 150 µM furosemide", "value": "competitive inhibition"},
      {"measurement": "Ki", "setting": "[7]; read-out: Ki on choline entry, 150 µM furosemide, Lineweaver–Burk", "value": 3.1, "unit": "µM"},
      {"measurement": "Binding to human plasma-proteins", "setting": "human plasma-proteins", "value": 33, "unit": "%"},
      {"measurement": "IC50", "setting": "choline kinase (CK) [8]", "value": 1.5, "unit": "mM"},
      {"measurement": "IC50", "setting": "[9]; 3 h, read-out: NA50, ring stage, [3H]-hypoxanthine, 3 h", "value": 240, "unit": "µM"},
      {"measurement": "IC50", "setting": "[9]; 3 h, read-out: NA50, schizont stage, [3H]-hypoxanthine, 3 h", "value": 160, "unit": "µM"},
      {"measurement": "IC50", "setting": "[9]; 3 h, read-out: NA50, trophozoite stage, [3H]-hypoxanthine, 3 h", "value": 340, "unit": "µM"},
      {"measurement": "IC50", "setting": "[9]; read-out: NA50, range over the three stages", "value": "160 to 340", "unit": "µM"},
      {"measurement": "Concentrations affecting NA biosynthesis relative to PC50 values", "setting": "[9]; higher than the PC50, three stages", "value": "13- to 80 fold"},
      {"measurement": "Vmax of albitiazolium entry", "setting": "[10]; free parasites (Table 2)", "value": "6.1 ± 1.1 pmol per 10^7 cells·min^−1"},
      {"measurement": "Vmax of albitiazolium entry", "setting": "[10]; isolated parasites, 10 min, 37°C", "value": "6.1 ± 1.1 pmol per 10^7 parasites·min^−1"},
      {"measurement": "Concentration from which choline entry is significantly inhibited", "setting": "[11]; 15 µM choline", "value": 4, "unit": "µM"},
      {"measurement": "Concentration for complete inhibition of choline entry", "setting": "[11]; 15 µM choline, not reached", "value": "> 36", "unit": "µM"},
      {"measurement": "Concentration for complete inhibition of choline entry", "setting": "[12]; 15 µM choline", "value": 10, "unit": "µM"},
      {"measurement": "Type of inhibition", "setting": "[12]; inhibition of choline entry", "value": "Competitive"},
      {"measurement": "IC50", "setting": "[12]; read-out: IC50 on choline entry into parasites, 15 µM choline, 10 min", "value": "2300 ± 200", "unit": "nM"},
      {"measurement": "Ki", "setting": "[12]; read-out: Ki on choline entry into parasites, Lineweaver–Burk", "value": 530, "unit": "nM"},
      {"measurement": "IC100", "setting": "[1]; 0.5 h, read-out: Concentration for complete inhibition", "value": 100000, "unit": "µM"},
      {"measurement": "Accumulation in P. falciparum-IRBC", "setting": "P. falciparum-IRBC; external concentration of 100 nM, unpublished observations", "value": 400, "unit": "fold"},
      {"measurement": "cellular accumulation ratio (CAR)", "setting": "P. falciparum-IRBC; infected erythrocytes at mature stages, in preparation", "value": "~400"}
    ]},
    {"molecule": "N=C(N)c1ccc(OCCCCCOc2ccc(C(=N)N)cc2)cc1", "note": "[pentamidine, reference compound]", "values": [
      {"measurement": "Effect on NA and PC synthesis", "setting": "[9]; same conditions as albitiazolium, data not shown", "value": "affected primarily NA synthesis and not PC synthesis"}
    ]},
    {"molecule": "C[N+](C)(C)CCOP(=O)(O)OP(=O)([O-])OC[C@H]1O[C@@H](n2ccc(N)nc2=O)[C@H](O)[C@@H]1O", "note": "[CDP–choline]", "values": [
      {"measurement": "Vmax", "setting": "[13]", "value": "17.0 ± 1.5", "unit": "pmol per 10^7 IRBC·min^−1"}
    ]},
    {"molecule": "C[N+](C)(C)CCO", "note": "[choline]", "values": [
      {"measurement": "Vmax", "setting": "choline kinase (CK) [3]", "value": "63.3 ± 11.6", "unit": "pmol per 10^7 IRBC·min^−1"},
      {"measurement": "Vmax of choline entry", "setting": "[7]; IRBC with 150 µM furosemide", "value": "0.69 ± 0.23 pmol per 10^7 IRBC·min^−1 and 0.7 ± 0.2 pmol per 10^7 IRBC·min^−1"},
      {"measurement": "Km", "setting": "[7]; read-out: Km of choline entry, IRBC with 150 µM furosemide", "value": "11 ± 2.4", "unit": "µM"},
      {"measurement": "Vmax of choline entry", "setting": "[14]", "value": "0.43 ± 0.05", "unit": "pmol per 10^7 RBC·min^−1"},
      {"measurement": "Km", "setting": "[14]; read-out: Km of choline entry, n= 4", "value": "12.2 ± 2.2", "unit": "µM"},
      {"measurement": "Type of inhibition", "setting": "[10]", "value": "competitive inhibition"},
      {"measurement": "Type of inhibition", "setting": "[10]; listed as Choline", "value": "Competitive"},
      {"measurement": "Ki", "setting": "[10]; read-out: Ki on albitiazolium entry into parasites, Lineweaver–Burk", "value": 321, "unit": "µM"},
      {"measurement": "Choline uptake rate", "setting": "[11]; external concentration of 80 µM choline", "value": 1.5, "unit": "pmol per 10^7 IRBC·min^−1"},
      {"measurement": "Vmax of parasite choline entry", "setting": "[12]; Table 3", "value": "23.3 ± 4.5", "unit": "pmol per 10^7 IRBC·min^−1"},
      {"measurement": "Vmax of choline entry", "setting": "[12]; free parasites (Table 2)", "value": "23.3 ± 4.5 pmol per 10^7 cells·min^−1"},
      {"measurement": "Km", "setting": "[12]; read-out: Km of choline entry, saponin-freed parasites, 10 min, 37°C", "value": "18.5 ± 3.3", "unit": "µM"}
    ]},
    {"molecule": "B1", "values": [
      {"measurement": "Km", "setting": "[15]", "value": "31.2 ± 4.1", "unit": "µM"}
    ]}
  ]
}
